Test [1] can be described thus: Inhibition of wild type Bacteroides thetaiotaomicron beta-mannosidase 2A expressed in Escherichia coli BL21 (DE3) at 37 degC and Ph 5.6 by 2,4-dinitrophenolate release assay.
In test [2] the target is Beta-mannosidase (Bacteroides thetaiotaomicron (strain ATCC 29148 / DSM 2079 / NCTC10582 / E50 / VPI-5482), UniProt Q8AAK6, W395A).
Test [3] has as its target Beta-mannosidase (Bacteroides thetaiotaomicron (strain ATCC 29148 / DSM 2079 / NCTC10582 / E50 / VPI-5482), UniProt Q8AAK6, N461A).
Test [4] concerns the target Beta-mannosidase (Bacteroides thetaiotaomicron (strain ATCC 29148 / DSM 2079 / NCTC10582 / E50 / VPI-5482), UniProt Q8AAK6, Q646A).
Test [5] deals with Beta-mannosidase (Bacteroides thetaiotaomicron (strain ATCC 29148 / DSM 2079 / NCTC10582 / E50 / VPI-5482), UniProt Q8AAK6, Y537A).
Test [6] concerns the target Beta-mannosidase (Bacteroides thetaiotaomicron (strain ATCC 29148 / DSM 2079 / NCTC10582 / E50 / VPI-5482), UniProt Q8AAK6, W198G).
In test [7] the target is Beta-mannosidase (Bacteroides thetaiotaomicron (strain ATCC 29148 / DSM 2079 / NCTC10582 / E50 / VPI-5482), UniProt Q8AAK6, W645A).
The nature of test [8]: Inhibition of Thermotoga maritima Beta-glucosidase GH1.

Chain of Beta-mannosidase (Bacteroides thetaiotaomicron (strain ATCC 29148 / DSM 2079 / NCTC10582 / E50 / VPI-5482), UniProt Q8AAK6, W395A) (Q8AAK6 26-864 W395A limits assumed): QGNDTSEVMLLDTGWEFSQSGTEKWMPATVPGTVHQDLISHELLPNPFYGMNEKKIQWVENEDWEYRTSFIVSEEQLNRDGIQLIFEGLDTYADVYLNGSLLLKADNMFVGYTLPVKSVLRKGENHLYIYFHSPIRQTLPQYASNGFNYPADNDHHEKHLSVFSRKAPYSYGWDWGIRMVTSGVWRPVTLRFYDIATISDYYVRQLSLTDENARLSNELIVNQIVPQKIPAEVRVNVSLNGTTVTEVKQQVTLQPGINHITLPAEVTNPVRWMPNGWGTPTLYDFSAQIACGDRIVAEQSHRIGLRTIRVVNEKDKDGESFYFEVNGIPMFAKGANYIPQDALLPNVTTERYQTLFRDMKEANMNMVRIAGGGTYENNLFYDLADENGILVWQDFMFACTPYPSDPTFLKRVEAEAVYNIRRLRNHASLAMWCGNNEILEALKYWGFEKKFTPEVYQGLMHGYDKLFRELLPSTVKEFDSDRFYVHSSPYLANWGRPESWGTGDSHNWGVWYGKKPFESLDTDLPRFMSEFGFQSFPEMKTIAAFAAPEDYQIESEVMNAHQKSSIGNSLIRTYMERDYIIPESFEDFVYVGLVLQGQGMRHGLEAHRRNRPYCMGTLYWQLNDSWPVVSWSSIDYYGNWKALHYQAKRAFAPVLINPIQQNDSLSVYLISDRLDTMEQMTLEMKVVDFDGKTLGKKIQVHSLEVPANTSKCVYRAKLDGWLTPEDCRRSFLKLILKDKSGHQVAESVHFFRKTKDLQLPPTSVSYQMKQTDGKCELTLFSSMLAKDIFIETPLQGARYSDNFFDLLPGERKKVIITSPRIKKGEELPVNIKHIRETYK
Chain of Beta-mannosidase (Bacteroides thetaiotaomicron (strain ATCC 29148 / DSM 2079 / NCTC10582 / E50 / VPI-5482), UniProt Q8AAK6, N461A) (Q8AAK6 26-864 N461A limits assumed): as the sequence (Q8AAK6 26-864 W395A limits assumed) above, with A370W, N436A counted along it
Chain of Beta-mannosidase (Bacteroides thetaiotaomicron (strain ATCC 29148 / DSM 2079 / NCTC10582 / E50 / VPI-5482), UniProt Q8AAK6, W645A) (Q8AAK6 26-864 W645A limits assumed): as the sequence (Q8AAK6 26-864 W395A limits assumed) above, with A370W, W620A counted along it
Chain of Beta-mannosidase (Bacteroides thetaiotaomicron (strain ATCC 29148 / DSM 2079 / NCTC10582 / E50 / VPI-5482), UniProt Q8AAK6, W198G) (Q8AAK6 26-864 W198G limits assumed): as the sequence (Q8AAK6 26-864 W395A limits assumed) above, with W173G, A370W counted along it
Chain of Beta-mannosidase (Bacteroides thetaiotaomicron (strain ATCC 29148 / DSM 2079 / NCTC10582 / E50 / VPI-5482), UniProt Q8AAK6, Y537A) (Q8AAK6 26-864 Y537A limits assumed): as the sequence (Q8AAK6 26-864 W395A limits assumed) above, with A370W, Y512A counted along it
Chain of Beta-mannosidase (Bacteroides thetaiotaomicron (strain ATCC 29148 / DSM 2079 / NCTC10582 / E50 / VPI-5482), UniProt Q8AAK6, Q646A) (Q8AAK6 26-864 Q646A limits assumed): as the sequence (Q8AAK6 26-864 W395A limits assumed) above, with A370W, Q621A counted along it

As usually defined, the Ki is the dissociation constant of the complex between target and ligand, obtained from inhibition or displacement. With `CCCCN1C[C@H](O)[C@@H](O)[C@H](O)[C@H]1CO`, the Ki in test [1] stood at 6000 µM.

For `OC[C@@H]1[C@@H](O)[C@H](O)[C@H](O)c2nc(CCc3ccccc3)cn21`, the Ki in test [2] was found to be 47 µM; in test [3], 3.19 µM; in test [1] it was 0.057 µM; in test [4], 0.245 µM; in test [5], 0.71 µM; in test [6], 14.2 µM. In addition, the Ki in test [7] was 324 µM.

As to `OC[C@@H]1[C@@H](O)[C@H](O)[C@H](O)c2nc(CNc3ccccc3)cn21`, the Ki in test [2] was 46.6 µM; in test [3], 7.28 µM; in test [4] it was 0.311 µM; in test [5], 1.54 µM; in test [6], 58.5 µM; in test [7] it was 68.1 µM.

For the compound `OC[C@@H]1[C@@H](O)[C@H](O)[C@H](O)c2nc(COc3ccccc3)cn21`, the Ki in test [2] came to 284 µM; in test [3], 19.1 µM; in test [1], 0.401 µM; in test [4], 0.494 µM; in test [5], 2.65 µM; in test [6], 356 µM. Also, the Ki in test [7] turned out to be 245 µM.

`OC[C@@H]1[C@@H](O)[C@H](O)[C@H](O)c2nc(C#Cc3ccccc3)cn21`: in test [1], the Ki was 2.4 µM.

Regarding `NCCC/N=C1\N[C@H](CO)[C@@H](O)[C@H](O)[C@@H]1O`, the affinity in test [1] corresponds to a Ki of 2.1 µM.

In turn, `OCCC/N=C1\N[C@H](CO)[C@@H](O)[C@H](O)[C@@H]1O` showed a Ki in test [1] of 2.2 µM.

Consider `CCC/N=C1\N[C@H](CO)[C@@H](O)[C@H](O)[C@@H]1O`, for which the Ki in test [2] worked out at 1180 µM; in test [3] it was 34.8 µM; in test [1], 1.9 µM; in test [4] it was 71.2 µM; in test [5], 84 µM; in test [6] it was 10500 µM. This compound returned a Ki in test [7] of 5700 µM.

`NCCCC/N=C1\N[C@H](CO)[C@@H](O)[C@H](O)[C@H]1O` registered a Ki in test [1] of 22 µM. This lies in the double-digit micromolar range.

`OC[C@H]1C[C@H]2[C@@H](O)[C@@H](O)[C@@]1(O)CN2Cc1ccccc1`: the Ki worked out at 2850 µM in test [2]; 3750 µM in test [3]; 121 µM in test [4]; 233 µM in test [5]; 5690 µM in test [6]; 14400 µM in test [7].

With `OC[C@H]1C[C@@H]2NC[C@]1(O)[C@H](O)[C@@H]2O`, in test [1], the affinity corresponds to a Ki of 500 µM.

For `OC[C@H]1CNC(O)[C@@H](O)[C@@H]1O` (some centres undefined), the Ki was determined as 40.8 µM in test [2]; 641 µM in test [3]; 14 µM in test [4]; 19.2 µM in test [5]; 788 µM in test [6]; 1.11 µM in test [7].

As for `OC[C@@H]1[C@@H](O)[C@H](O)[C@H](O)c2nnnn21`, the Ki is 1000 µM in test [1] and 0.17 µM in test [8].

In the case of `O[C@@H]1[C@@H](O)[C@H](O)[C@@]2(O)CC[C@H]1N2`, the inhibition constant Ki in test [1] was 11000 µM. In other words, the millimolar range.

Turning to `OC[C@H]1N/C(=N/O)[C@H](O)[C@@H](O)[C@@H]1O`, in test [1], the affinity corresponds to a Ki of 2000 µM.

In test [1], `CC(C)O[C@@H]1O[C@]2(CO)CC[C@]1(O)[C@@H](O)[C@@H]2O` displayed an inhibition constant Ki above 400000 µM.

In test [1], `OC[C@H]1CNC[C@@H](O)[C@@H]1O` [AFEGOSTAT] displayed a Ki of 9000 µM.

Consider `O[C@H]1[C@H](O)[C@@H](O)CN2CC[C@H](O)[C@H]12` [CASTANOSPERMINE], for which, in test [1], the affinity, expressed as Ki, was 23000 µM. Against the preceding compound, the Ki is about 2.6-fold higher.

`OC[C@H]1NC[C@H](O)[C@@H](O)[C@@H]1O` [DUVOGLUSTAT] registered a Ki in test [1] of 14000 µM.

The compound `OC[C@H]1ONC[C@@H](O)[C@@H]1O` [TETRAHYDROOXAZINE] had a Ki in test [1] of 20000 µM. This Ki and that of the compound before are within 1.5-fold of each other.

The values above are taken from ChEMBL document CHEMBL1212704, “Structural and biochemical evidence for a boat-like transition state in beta-mannosidases” (Nat Chem Biol, 2008).
